Measurements from patent US20180280528A1, “ANTIFOLATE CONJUGATES FOR TREATING INFLAMMATION” (ENDOCYTE, INC., priority 2015, published 2018).

Columns and labels:
[1] = Pharmacokinetics in rats
Method: Each rat was used for collection of blood samples for a maximum of 4 time points. […] The samples were centrifuged for 3 minutes at 2000×g (Eppendorf 5417R centrifuge) to obtain plasma. The plasma samples were stored at −80° C. until LC-MS/MS analysis.
(§1) LC-MS/MS analysis utilized a Waters Acquity UPLC system paired with a Waters Quattro Premier XE tandem quadrupole mass spectrometer operating in ESI positive mode. Prior to injection, K3EDTA plasma samples were processed using a Phenomenex Strata X-A solid phase extraction (SPE) plate. All plasma samples were fortified with N-Maleoyl-β-alanine, mannitol, and acetic acid. Briefly, 50 μL of plasma diluted with 50 μL of internal standard solution and 500 μL 1000:4:1.5 water:ammonium hydroxide:formic acid was mixed and loaded onto a preconditioned Strata X-A SPE plate. Aqueous and organic washes were then applied followed by elution of all analytes with 300:200:7.5 methanol:water:formic acid. The samples were evaporated until approximately 30 μL remained in all wells and 30 μL of 9:1 water:ammonium hydroxide was then added. Finally, the plate was sealed, mixed, and centrifuged prior to transfer to the 2-8° C. Acquity autosampler. Note: During EC1669 analysis, EC0470 was converted to a hydrazone product for bioanalysis. Acetone (500 μL) was added to all samples after the first evaporation step followed by sealing all wells and heating at 50° C. for one hour. After this step, the acetone was evaporated and the extraction completed as described above.
(§2) A 10 μL sample volume was applied to the Waters BEH Shield RP18 100×2.1 mm, […] UPLC column operating at a flow rate of 0.4 mL/min while being maintained at 45° C. A gradient between mobile phase A (1000:4:1.5 water:ammonium hydroxide:formic acid) and mobile phase B (acetonitrile) was used to separate the analytes. The gradient was held at 2% B for the first 30 seconds of the chromatographic run followed by increasing to 20% B by 2.5 minutes. A rapid gradient from 60-90% B is then used to clean the column prior to equilibration at 2% B to complete the 4 minute run cycle.
(§3) For EC1669 MS/MS analysis, EC1669 and its known major metabolites, EC1886 and […], were optimized and monitored. […] In all cases, internal standard response was used to generate response ratios for each analyte. When calibrated, data was regressed using MassLynx 4.1 software. The table below lists transitions for analytes and internal standards monitored for LC-MS/MS bioanalysis.

[2] = Pharmacokinetics in dogs; details: for half-life: male
Method: (§4) The samples were centrifuged under refrigeration for at least 10 minutes at 3000 rpm and the plasma generated stored at −20° C. until LC-MS/MS analysis.
as §4, §1, §2, §3

[3] = system: Rat adjuvant arthritis (AIA); test: Rat adjuvant arthritis (AIA) treatment studies; type: in vivo
Method: Female Lewis rats (175-200 g) were purchased from Harlan Sprague Dawley (Indianapolis, Ind.) and allowed to acclimate for 1 week. Generally, rats were fed a folate-deficient diet (Harlan Teklad) for 9-10 days prior to arthritis induction.
Rat adjuvant arthritis (AIA) was induced by intradermal inoculation (at the base of tail) of 0.45-0.46 mg of heat-killed Mycobacteria butyricum (BD Diagnostic Systems, Sparks, Md.) in 100 μL light mineral oil (Sigma). […] During the course of disease development, animals were weighed at least 3 times a week. Paw edema (degree of arthritis) were scored 3 times a week as follows: 0=no edema or arthritis; 1=swelling in one type of joint; 2=swelling in two types of joint; 3=swelling in three types of joint; 4=swelling of the entire paw. A total score for each rat is calculated by adding up the scores for each of the four paws, giving a maximum of 16 per animal.
On the first day of treatment, rats with desired arthritis scores were distributed evenly across the control and treatment groups (n=5). […] All compounds and conjugates were administered subcutaneously (s.c.) starting 9 days after arthritis induction with biweekly (BIW, Mondays and Thursdays) or once-a-week (QW, Mondays) dosing for two consecutive weeks. At the completion of each study (˜4 days after the last treatment), rats were euthanized by CO2 asphyxiation and processed for paw weight (cut at the hairline) and spleen weight.
The rat AIA model resembles many characteristics of human rheumatoid arthritis and it is very aggressive. […] The animals in the AIA control group were left untreated.

[4] = rat plasma, EC1669 dosed SC 500 nmol/kg
[5] = beagle dog plasma, EC1669 dosed SC 2.4 mg/kg (1073 nmol/kg), N=4
[6] = female, Lewis, rat, in vivo, sc, 500 nmol/kg
[7] = beagle, dog, in vivo, sc, 2.4 mg/kg

For `NNC(=O)CC[C@H](NC(=O)c1ccc(NCc2cnc3nc(N)nc(N)c3n2)cc1)C(=O)O` [EC0470, aminopterin gamma-hydrazide], the AUCinf [1, 4] was 0.0659 µM·h, the AUClast [1, 4] was 0.0647 µM·h and the Cmax [1, 4] was 21.2 nM. For the same molecule, the Tmax [1, 4] was 1 h, the t1/2 [1, 4] was 1.64 h and the AUClast [2, 5] was 0.51 µM·h. It also gave a Cmax [2, 5] of 66.5 nM, a Tmax [2, 5] of 3.25 h and a t1/2 [2, 5] of 4.38 h.

In the case of `Nc1nc(N)c2nc(CNc3ccc(C(=O)N[C@@H](CCC(=O)O)C(=O)O)cc3)cnc2n1` [EC1886, aminopterin, reference compound], the AUCinf [1, 6] is reported as 0.0956 µM·h, the AUClast [1, 6] is reported as 0.0947 µM·h and the half-life [1, 6] is reported as 0.997 h. The AUC(0-inf) ([1]; female, Lewis, rat, in vivo, sc, 500 nmol/kg, AUCinf) was 0.107 µM·h, the AUClast ([2]; beagle dog plasma, EC2319 dosed SC 2.43 mg/kg (1074 nmol/kg), N=2) was 0.157 µM·h and the AUC(0-t) [2, 7] was 0.0417 µM·h. For the same molecule, the Cmax [2, 7] was 9.41 nM, the Tmax [2, 7] was 3.5 h and the “AUClast of aminopterin released, higher from EC2319 than from EC1669” value ([2]; dogs, subcutaneous dosing) was roughly 3.8 fold. The “Cmax of aminopterin released, higher from EC2319 than from EC1669” value ([2]; dogs, subcutaneous dosing) was roughly 2.6 fold, the half-life ([2]; beagle, dog, in vivo, iv, 1 mg/kg) was 2 h and the half-life ([2]; beagle, dog, in vivo, sc, 2.43 mg/kg) was 2.74 h.

With `N=c1[nH]c(N)nc2ncc(CNc3ccc(C(=O)N[C@@H](CCC(=O)NCCSSC[C@@H](NC(=O)[C@H](CCC(=O)NC[C@H](O)[C@@H](O)[C@H](O)[C@H](O)CO)NC(=O)[C@@H](CCC(=O)O)NC(=O)[C@H](CCC(=O)NC[C@H](O)[C@@H](O)[C@H](O)[C@H](O)CO)NC(=O)[C@@H](CCC(=O)O)NC(=O)[C@H](CCC(=O)NC[C@H](O)[C@@H](O)[C@H](O)[C@H](O)CO)NC(=O)CC[C@H](NC(=O)c4ccc(NCc5cnc6nc(N)[nH]c(=O)c6n5)cc4)C(=O)O)C(=O)O)C(=O)O)cc3)nc12` [EC2285] the “anti-arthritic activity with concurrent EC0923 (arthritis score, paw weight, spleen weight, body weight)” value ([3]; Study 2, 500 nmol/kg BIW plus 500-fold molar excess EC0923 (250 μmol/kg)) was “fully blocked by EC0923”.

In the case of `COC(=O)[C@H](CCCCNC(=O)[C@H](CCC(=O)NC[C@H](O)[C@@H](O)[C@H](O)[C@H](O)CO)NC(=O)[C@H](CCC(=O)O)NC(=O)[C@H](CCC(=O)NC[C@H](O)[C@@H](O)[C@H](O)[C@H](O)CO)NC(=O)[C@H](CCC(=O)O)NC(=O)[C@H](CCC(=O)NC[C@H](O)[C@@H](O)[C@H](O)[C@H](O)CO)NC(=O)CC[C@H](NC(=O)c1ccc(NCc2cnc3nc(N)[nH]c(=O)c3n2)cc1)C(=O)O)NC(=O)CC[C@H](NC(=O)c1ccc(NCc2cnc3nc(N)[nH]c(=N)c3n2)cc1)C(=O)O` [EC2413], the anti-arthritic activity ([3]; Study 3, 500 nmol/kg, BIW) is reported as “significant anti-arthritic activity”, the body weight ([3]; Study 3, 500 nmol/kg, BIW) is reported as “maintained a good body weight” and the “decreasing arthritis score, paw weight, and spleen weight” value ([3]; Study 3, 500 nmol/kg, BIW, two consecutive weeks) is reported as “inferior to both EC2319 and EC1669”. The “effectiveness in all parameters assessed” value ([3]; Study 3, 1000 nmol/kg (QW)) was “less effective than EC2413 dosed at 500 nmol/kg (BIW)”.

`COC(=O)[C@H](CSC1CC(=O)N(CCC(=O)O)C1=O)NC(=O)CC[C@H](NC(=O)c1ccc(NCc2cnc3nc(N)[nH]c(=N)c3n2)cc1)C(=O)O` (stereo partly shown) [EC2496] showed a half-life ([2]; beagle, dog, plasma, iv, 1 mg/kg) of 1.28 h and a half-life ([2]; beagle, dog, plasma, sc, 2.43 mg/kg) of 2.14 h.
